Data set [1] has as its target human glutaminyl cyclase (hQC) (Homo sapiens, UniProt Q16769). The experiment in a line: hQC inhibition, fluorometric assay with fluorogenic substrate Glu-AMC and pGAPase.
Protocol: The synthesized compounds were evaluated for hQC inhibition by a fluorometric assay with a fluorogenic substrate, Glu-AMC·HBr (L-glutamine 7-amido-4-methylcoumarin, BACHEM, Switzerland), and an auxiliary enzyme, pyroglutamyl peptidase (pGAPase, 50 units, Qiagen, Germany), as our previously reported.[29] The used buffer consisted of 25 mM HEPES (Sigma), with pH 7.0, adjusted with HCl. […] After incubation in 96-well black plates (Greiner, Austria) for 10 min at 37 °C, the reaction was started by adding 50 μL of hQC solution (0.04 μg mL^−1). The excitation/emission wavelengths at 380/460 nm were correlated with the amount of ACM, the last product of the enzymatic process.
The subject of another data set is human QC. The note with it: ref bindingdb.org, cited from earlier work.
On the set-up of data set [2]: method as in PMID 26101580. The settings on record: cited from earlier work.
The mark [3] stands for this setting: IC50 for inhibition of the hQC enzyme, Table 1, HEPES pH 7.0, 37 °C.
The mark [4] stands for this setting: Table 2, from IC50 assumed equal to the inhibition constant ki.
Setting [5] is: supplement Table S1, compounds 1_x and 3_x.

Sequence of human glutaminyl cyclase (hQC) (Q16769 29-361): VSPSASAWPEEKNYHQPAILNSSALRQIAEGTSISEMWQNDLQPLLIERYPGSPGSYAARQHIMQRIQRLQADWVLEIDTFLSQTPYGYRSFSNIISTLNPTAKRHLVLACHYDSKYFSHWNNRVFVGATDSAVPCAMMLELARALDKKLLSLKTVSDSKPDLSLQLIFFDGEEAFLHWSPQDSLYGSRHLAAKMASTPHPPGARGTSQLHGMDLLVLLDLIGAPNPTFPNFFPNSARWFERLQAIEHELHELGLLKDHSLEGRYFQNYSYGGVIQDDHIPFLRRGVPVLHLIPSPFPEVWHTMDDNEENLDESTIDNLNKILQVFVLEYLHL

For orientation: IC50 means the midpoint of a concentration-inhibition curve. A low value points to greater potency in that assay. Turning to `Cc1cncn1CCCNC(Cc1ccccc1)C(=O)NC(C)C(N)=O` (stereo not shown) [Compound 3_3], the IC50 in data set [1] (IC50, supplement Table S3) stood at 446 nM; in data set [1] (setting [3]), 450 ± 40 nM. Besides, the ΔGEXP in data set [1] (setting [4]) is -8.68 kcal/mol; in data set [1] (setting [5]), -8.59 kcal/mol.

For orientation: Ki means the dissociation constant of the complex between target and ligand, obtained from inhibition or displacement. As for `c1ccc(Cn2ccnc2)cc1` [Compound 77918], the ΔGEXP in the data set on human QC (supplement Table S1, ligands 1-12) is recorded as -9.03 kcal/mol. Besides, at human QC (supplement Table S3), the Ki is 262 nM.

Regarding `COc1cc2nc(NCCCn3cncc3C)[nH]c2cc1OC` [Compound 1_2, 5,6-dimethoxy-N-(3-(5-methyl-1H-imidazol-1-yl)propyl)-1H-benzo[d]imidazol-2-amine], the IC50 was 107 nM in data set [1] (IC50, supplement Table S3) and 110 ± 30 nM in data set [1] (setting [3]). In data set [1] (setting [4]), this compound registered a ΔGEXP of -9.57 kcal/mol. Moreover, the “more potent than 1_1” value in data set [1] (ratio of IC50 values) was determined as 2 folds.

As for `COC(=O)C(C)NC(=O)C(Cc1ccccc1)NCCCn1cncc1C` (stereo not shown) [Compound 3_1], the IC50 in data set [1] (IC50, supplement Table S3) turned out to be 637 nM; in data set [1] (setting [3]), 640 ± 90 nM. In addition, the ΔGEXP in data set [1] (setting [4]) was -8.50 kcal/mol; in data set [1] (setting [5]), -8.45 kcal/mol.

With `COc1cc(NC(=S)NCCCn2ccnc2)ccc1O[11CH3]` [[^11C]PBD150], the “permeation of the BBB” value in data set [2] is recorded as “impossible permeation the BBB”.

As to `COc1ccc(Nc2nnc(CCn3cncc3C)o2)cc1OC` [Compound 1_4], the IC50 in data set [1] (IC50, supplement Table S3) worked out at 420 nM; in data set [1] (setting [3]), 420 ± 60 nM. Besides, the results for the ΔGEXP in data set [1] (setting [4]) and in data set [1] (setting [5]) were -8.75 kcal/mol and -8.69 kcal/mol, respectively.

As for `COc1cc2nc(NCCCn3cncc3C)sc2cc1OC` [Compound 1_1], the IC50 was determined as 305 nM in data set [1] (IC50, supplement Table S3) and 300 ± 90 nM in data set [1] (setting [3]). The compound further came in with a ΔGEXP in data set [1] (setting [4]) of -8.94 kcal/mol.

For `COc1ccc(Nc2nc(CCn3cncc3C)cs2)cc1OC` [Compound 1_3], the IC50 worked out at 316 nM in data set [1] (IC50, supplement Table S3) and 320 ± 100 nM in data set [1] (setting [3]). For the same compound, the ΔGEXP in data set [1] (setting [4]) is -8.92 kcal/mol.

The values above are taken from PMC9071946, “In vitro and in silico determination of glutaminyl cyclase inhibitors” (RSC Advances, 2019).
